The structures appear in SMILES notation.

Holding throughout (type): functional, cell-based
In one experiment the test system is MCF7. Briefly: Cytotoxicity against human MCF7 cells after 24 hrs by MTT assay. The following applies: MCF7, 24 h.
A further experiment concerns HT-29. Briefly: Cytotoxicity against human HT-29 cells after 24 hrs by MTT assay. As to conditions: HT-29, 24 h. (In general: Tetrazolium assays rely on reduction of a dye to a coloured formazan, in cell work by metabolically active cells.)
A further experiment has as its system A549. Kind of experiment: Cytotoxicity against human A549 cells after 24 hrs by MTT assay. As to conditions: A549, 24 h.
The next experiment concerns PA-1. Kind of experiment: Cytotoxicity against human PA1 cells after 24 hrs by MTT assay. As to conditions: PA-1, 24 h.

One may read the IC50 as the concentration needed to halve the response being measured. The low end stands for inhibition by little substance, the high end for a need for much substance. For the molecule `Fc1ccc(Nc2nc(Nc3ccc(-c4nc5ccccc5o4)cc3)nc(N3CCOCC3)n2)cc1`, the IC50 in the experiment with MCF7 is 12.3 µM; in the experiment on HT-29, 310 nM; in the experiment on A549, 26.7 µM; with PA-1 it was 0.45 µM.
In the case of `c1ccc(CNc2nc(Nc3ccc(-c4nc5ccccc5o4)cc3)nc(N3CCOCC3)n2)cc1`, the IC50 in the experiment with MCF7 is 2.46 µM; in the experiment with HT-29 it was 920 nM; in the experiment on A549, 23.4 µM; in the experiment on PA-1 it was 10.5 µM.
The matching figures for `COc1ccc(Nc2nc(Nc3ccc(-c4nc5ccccc5o4)cc3)nc(N3CCOCC3)n2)cc1`: 6.48 µM, 140 nM, 12.9 µM and 0.25 µM.
The matching figures for `c1ccc(Nc2nc(Nc3ccc(-c4nc5ccccc5o4)cc3)nc(N3CCOCC3)n2)cc1`: 10.6 µM, 270 nM, 22 µM and 0.61 µM.
In the case of `Clc1nc(NCc2ccccc2)nc(Nc2ccc(-c3nc4ccccc4o3)cc2)n1`, the half-maximal inhibitory concentration (IC50) worked out at 66.1 µM in the experiment with MCF7, 44000 nM in the experiment on HT-29, 296 µM with A549 and 195 µM with PA-1.
For the molecule `Fc1ccc(Nc2nc(Cl)nc(Nc3ccc(-c4nc5ccccc5o4)cc3)n2)cc1`, the IC50 with MCF7 came out at 68.4 µM; with HT-29, 47000 nM; in the experiment with A549 it was 254 µM; in the experiment on PA-1, 186 µM.
The like results for `COc1ccc(Nc2nc(Cl)nc(Nc3ccc(-c4nc5ccccc5o4)cc3)n2)cc1` were, in that order, 270 µM, 139000 nM, 278 µM and 172 µM.
On to `Clc1nc(Nc2ccccc2)nc(Nc2ccc(-c3nc4ccccc4o3)cc2)n1`, for which the IC50 with MCF7 is 55.2 µM; in the experiment with HT-29, 32600 nM; in the experiment on A549, 225 µM; in the experiment on PA-1, 169 µM.
With `COc1cccc2c1C(=O)c1c(O)c3c(c(O)c1C2=O)C[C@@](O)(C(=O)CO)C[C@@H]3O[C@H]1C[C@H](N)[C@H](O)[C@H](C)O1` [DOXORUBICIN], the IC50 in the experiment with MCF7 turned out to be 10.9 µM; with HT-29, 1760 nM; with PA-1, 0.64 µM.

The values above are taken from ChEMBL document CHEMBL3044566, “Synthesis and anticancer activity of some new s-triazine derivatives” (Med Chem Res, 2013).
